Values joined by “and” are separate entries in the source; they are usually repeats but may differ in a detail not shown here. Identical values can stand only once. Like-named read-outs stand apart in the source and are kept apart here.
How the values were obtained:
Plasmopara viticola [1] = assay: Field trial, grape downy mildew fruit rot, Michigan, U.S.A. (natural infection); assay type: in vivo; conditions: 12 days after last treatment, 100 g/ha of each compound, grapes; for % Control, Incidence (Observed): downy mildew fruit rot incidence; for % Control, Severity (Observed): downy mildew fruit rot severity (diseased fruit surface area)
Method: (§1) The results provided by the mixtures were compared with the predicted results that were calculated using the formula set forth by S.R. Colby in Weeds 1967, 15, 20-22 ("Colby's Formula") from the results obtained using each of the compounds individually. The predicted results are also provided in the following Examples.
The trial was conducted in the State of Michigan, U.S.A. Plots consisted of 4 grape vines, cultivar Chancellor. Four such plots arranged in randomized blocks were used for each treatment
Fungicide treatments were applied at day 0, and at 13, 28, 43, 55, 71, and 84 days thereafter. N-[3(1'-chloro-3'-methyl-2'-oxopentan]-3,5-dichloro-4-methylbenzamide was applied as a flowable formulation (23% active ingredient) at 100 grams of active ingredient per hectare, and 2-cyano-N-((ethylamino)carbonyl)-2-(methoxyimino)acetamide was applied as a wettable powder formulation (CURZATE™, 50WP, DuPont, Wilmington, DE) at 100 grams of active ingredient per hectare. The two compounds were also applied as an aqueous tank mix of the two compounds at a dosage of 100 grams of active ingredient per hectare of each compound.
Evaluation of disease in response to natural infection was made 12 days after the last treatment The incidence and severity of downy mildew fruit rot was determined for twenty clusters of fruit selected randomly from the middle two vines of each plot Incidence refers to whether or not the cluster was diseased, and severity is the percentage of diseased fruit surface area. The compounds applied (Compound), and the incidence and severity results, expressed as percent disease control in comparison with untreated plots (% Control, Incidence (Observed) and % Control, Severity (Observed), respectively) are set forth below in TABLE 4 for treatment with N-[3'(1'-chloro-3'-methyl-2'-oxopentan]-3,5-dichloro-4-methylbenzamide, treatment with 2-cyano-N-((ethylamino)carbonyl)-2-(methoxyimino)acetamide and treatment with a mixture of the two compounds. The results obtained using the mixture of the two compounds were compared with predicted results that were calculated using Colby's formula from the results obtained using each of the compounds individually. The predicted results for incidence and severity are set forth below in TABLE 4 as "% Control, Incidence (Predicted)" and "% Control, Severity (Predicted)", respectively.

Phytophthora infestans [2] = assay type: in vivo; conditions: 6 days after inoculation, tomatoes
Phytophthora infestans [3] = conditions: in vivo
Plasmopara viticola [4] = assay: Field trial, grape vines, Campinas, Brazil (heavy natural infection); assay type: in vivo; conditions: grapes
Method: as §1
A field trial was conducted in Campinas, Brazil. Plots each consisted of 4 grape vines, cultivar Maria.
Fungicide treatments were applied at 7-day intervals with a total of 5 applications. N-[3'(1'-chloro-3'-methyl-2'-oxopentan]-3,5-dichloro-4-methylbenzamide was applied as a flowable formulation (23% active ingredient) , 2-cyano-N-((ethylamino)carbonyl)-2-(methoxyimino)acetamide as a wettable powder formulation (CURZATE™, 50WP, DuPont, Wilmington, DE). The two compounds were each applied individually in the manner disclosed above and in combination as an aqueous tank mix of the two compounds.
Evaluation of disease in response to a heavy natural infection was made 6 days after the third application, and 7 days after the fifth application. The Compounds applied and dosage rates, expressed as grams of active ingredient per hectare (Compound Dosage Rate (g/ha)) and the results, expressed as percent disease control in comparison with untreated plots (% Control(Observed)) are set forth below in TABLE 6 for treatment with N-[3'(1'-chloro-3'-methyl-2'-oxopentan]-3,5-dichloro4-methylbenzamide, treatment with 2-cyano-N-((ethylamino)carbonyl)-2-(methoxyimino)acetamide and treatment with mixtures of the two compounds. The results obtained using the mixtures of the two compounds were compared with those predicted by Colby's formula from the results provided by each of the two compounds used individually. The predicted results are set forth below in TABLE 6 as "% Control (Predicted)".

Phytophthora infestans [5] = conditions: in vivo; remark: listed apart in the source
Plasmopara viticola [6] = conditions: in vivo

| Compound | % Control, Incidence (Observed) (Plasmopara viticola [1]) [%] | % Control, Severity (Observed) (Plasmopara viticola [1]) [%] | % Control (Observed) (Phytophthora infestans [2]; single compound 0.4 ppm) [%] | % Control (Observed) (Phytophthora infestans [2]; single compound 0.8 ppm) [%] | % Control (Observed) (Phytophthora infestans [3]) [%] | % Control by Evaluation Interval 5 weeks (Phytophthora infestans [5]) | % Control by Evaluation Interval 6 weeks (Phytophthora infestans [5]) | % Control by Evaluation Interval 7 weeks (Phytophthora infestans [5]) | % Control (Observed) (Plasmopara viticola [6]) [%] | other results |
| --- | --- | --- | --- | --- | --- | --- | --- | --- | --- | --- |
| CCC(C)(NC(=O)c1cc(Cl)c(C)c(Cl)c1)C(=O)CCl (stereo not drawn) [Compound A] | 43.7 | 75.3 | 0 | 20 | 23 | 99% and 98% | 97% and 81% | 88% and 56% | 87 | % Control (Observed) (Plasmopara viticola [4]; Seven days after the fifth treatment, A 100 g/ha alone): 21.4%; % Control (Observed) (Plasmopara viticola [4]; Seven days after the fifth treatment, A 200 g/ha alone): 26.1%; % Control (Observed) (Plasmopara viticola [4]; Six days after the third treatment, A 100 g/ha alone): 24.3%; % Control (Observed) (Plasmopara viticola [4]; Six days after the third treatment, A 200 g/ha alone): 21.8%; % Control by Evaluation Interval 9 weeks (Phytophthora infestans [5]): 16% and 11%; % Control by Evaluation Interval 10 weeks (Phytophthora infestans [5]): 11% and 6%; % Control by Evaluation Interval 11 weeks (Phytophthora infestans [5]): 1% and 0% |
| CCNC(=O)NC(=O)C(C#N)=NOC [Compound C, 2-cyano-N-((ethylamino)carbonyl)-2-(methoxyimino)acetamide] | 2.5 | 34.6 | – | – | – | – | – | – | – | % Control (Observed) (Plasmopara viticola [4]; Seven days after the fifth treatment, C 25 g/ha alone): 66.7%; % Control (Observed) (Plasmopara viticola [4]; Seven days after the fifth treatment, C 50 g/ha alone): 59.6%; % Control (Observed) (Plasmopara viticola [4]; Seven days after the fifth treatment, C 100 g/ha alone): 64.3%; % Control (Observed) (Plasmopara viticola [4]; Six days after the third treatment, C 25 g/ha alone): 71.3%; % Control (Observed) (Plasmopara viticola [4]; Six days after the third treatment, C 50 g/ha alone): 64.8%; % Control (Observed) (Plasmopara viticola [4]; Six days after the third treatment, C 100 g/ha alone): 74.1% |
| COc1ccc(C(=CC(=O)N2CCOCC2)c2ccc(Cl)cc2)cc1OC [Compound D, (E,Z) 4-(3-(4-chlorophenyl)-3-(3,4-dimethoxyphenyl)acryloyl) morpholine] | – | – | 0 | 10 | – | – | – | – | – | % Control (Observed) (Phytophthora infestans [2]; single compound 1.5 ppm): 35% |
| manganese-zinc ethylenebis(dithiocarbamate) [reference compound] | – | – | – | – | 69 | 99% and 98% | 98% and 88% | 95% and 80% | 61 | % Control by Evaluation Interval 8 weeks (Phytophthora infestans [5]): 87% and 62% |

— patent publication EP0753258B1 (priority 1995, dated 1997)
